EP0181592B1, “Use of spergualin derivatives for the preparation of medicaments having immunosuppressive activity” (MICROBIAL CHEMISTRY RESEARCH FOUNDATION, priority 1984, dated 1986)

Experiments:
[1] = tested on: Mice Sensitized by Sheep Red Blood Cells; assay: Inhibition of delayed-type hypersensitivity in mice sensitized by sheep red blood cells (footpad swelling); type: in vivo, CDFl mice; conditions: relative to saline control = 100%, measured at the 24th hour
Protocol: CDFl mice (8-wk-old, female) were sensitized by intravenous injection of 1 x 10⁵ sheep red blood cells. Four days later, the sensitized mice were subcutaneously injected in one footpad with 1 x 10⁸ sheep red blood cells so as to induce delayed-type hypersensitivity. The swelling of the footpad was measured at the 24th hour with a micrometer. Each of the test compounds was administered intraperitoneally in the amounts (mg/kg) indicated in Table 3 for a period of 3 days that started on the day following the initial sensitization. The degree of footpad swelling was indicated in relative values, with the value for a control given physiological saline instead of the test compounds being taken as 100%.

[2] = tested on: Spleen cells from BALB/C mice; assay: Inhibition of LPS-induced B-lymphocyte blast genesis (3H-thymidine uptake); type: cell-based; conditions: for suppression of LPS-induced genesis of B-lymphocyte blasts (in words): LPS-stimulated; for inhibition at 10 µg/mL / inhibition at 100 µg/mL: Mus musculus, 100 µg/ml of LPS from E. coli; for inhibition at 10 µg/mL: 10 µg/ml compound; for inhibition at 100 µg/mL: 100 µg/ml compound
Protocol: (§1) Spleen cells from BALB/C mice were distributed among wells in a microplate so that each well contained 2 x 10⁵ cells/0.2 ml. Each of the selected test compounds was added to all wells but one, the latter being used as a control. ConA (5 µg/ml) was added to all the wells and the so prepared cell suspensions were cultivated in a 5% CO₂ incubator for 72 hours at 37°C. Eight hours before the completion of the incubation, 1 µCi of ³H-thymidine was added to each well and the uptake of the thymidine by the cultured cells was measured with a liquid scintillation counter to estimate the progress of reaction of T-lymphocyte blast genesis. The percentage inhibition of the genesis by each of the test compounds was calculated by: (1 - Bdpm/Adpm) x 100 wherein Adpm indicates the uptake count for the addition of ConA alone and Bdpm, the count for the addition of both ConA and the test compound.
The uptake of ³H-thymidine by B-cell blasts was measured in accordance with the method used in Test Example 2, except that the inducer ConA was replaced by 100 µg/ml of LPS from E. coli. The percentage inhibition of blast genesis by selected test compounds was also determined by the same method as used in Text Example 2.

[3] = Toxicity to mice (LD50, single intraperitoneal administration); conditions: mouse, in vivo, ip, read-out: LD₅₀
From the text: The compounds of the formula I are characterized by relatively low toxicity and small accumulation of toxicity upon continuous administration.

CDFl mice = assay: Inhibition of production of antibodies against sheep red blood cells (plaque-forming spleen cells); type: in vivo; conditions: 12.5 mg/kg per day intraperitoneally for 3 days; plaque-forming spleen cells counted
From the text: The compounds of the formula I exert inhibitory effects on the function of lymphocytes of immunological importance. […] Therefore in vivo experiments have been conducted to examine the effects of the compounds of the formula I on T-lymphocytes. First, in accordance with the method of Lagrange et al. (Lagrange et al., Journal of Experimental Medicine, 139, 528-542, 1974), the compounds of the formula I were examined for their effects on delayed-type hypersensivity in mice that had been sensitized with sheep red blood cells. The delayed-type hypersensivity could be blocked by administering the compound for three consecutive days following the sensitization with sheep red blood cells. Additionally, in accordance with the method of Jerne et al. (Jerne et al., Cell-bound Antibodies, pp. 109-122, 1963), the compounds of the formula I were checked for their effects on the plaque-forming ability of spleen cells from mice sensitized by antigenic sheep red blood cells.
CDFl mice (6-10 wk old, female) were immunized by intravenous injection of 1 x 10⁸ sheep red blood cells. The mice were intraperitoneally administered 12.5 mg/kg per day of selected test compounds for a period of 3 days starting from the day following the intravenous injection. Four days later, spleen cells were isolated from the mice and the number of plaque-forming cells was counted. The percentage inhibition of antibody production was calculated by (1 - B/A) x 100 wherein A is the count for a control group (given physiological saline) and B, for the treated group.

[4] = tested on: Spleen cells from BALB/C mice; assay: Inhibition of ConA-induced T-lymphocyte blast genesis (3H-thymidine uptake); type: cell-based; conditions: for inhibition of the reaction of T-lymphocyte blast genesis (in words): ConA-stimulated; for inhibition at 10 µg/mL / inhibition at 100 µg/mL: Mus musculus, T-lymphocyte, ConA 5 µg/ml, 72 hours; for inhibition at 10 µg/mL: 10 µg/ml compound; for inhibition at 100 µg/mL: 100 µg/ml compound
Protocol: as §1

[5] = 0.20 mg/kg intraperitoneally for 3 days
[6] = 0.78 mg/kg intraperitoneally for 3 days
[7] = 3.13 mg/kg intraperitoneally for 3 days
[8] = 12.5 mg/kg intraperitoneally for 3 days
[9] = 6.25 mg/kg intraperitoneally for 3 days
[10] = 25 mg/kg intraperitoneally for 3 days

| Structure (SMILES) | Footpad swelling (%) [1, 5] | Footpad swelling (%) [1, 6] | Footpad swelling (%) [1, 7] | Footpad swelling (%) [1, 8] | suppression of LPS-induced genesis of B-lymphocyte blasts (in words) [2] | inhibition at 10 µg/mL [2] | inhibition at 100 µg/mL [2] | LD50 [3] | percentage inhibition of antibody production (CDFl mice) | inhibition of the reaction of T-lymphocyte blast genesis (in words) [4] | inhibition at 10 µg/mL [4] | inhibition at 100 µg/mL [4] | Footpad swelling (%) ([1]; 0.39 mg/kg intraperitoneally for 3 days) | Footpad swelling (%) [1, 9] | Footpad swelling (%) [1, 10] |
| --- | --- | --- | --- | --- | --- | --- | --- | --- | --- | --- | --- | --- | --- | --- | --- |
| N=C(N)NCCCCCCC(=O)NC(O)C(=O)NCCCCNCCCN (centres unmarked) [(1), N-[4-(3-aminopropyl)aminobutyl]-2-(7-guanidinoheptaneamido)-2-hydroxyethaneamide] | 72% | 87% | 29% | 15% | highly effective in suppressing | 98% | 100% | 25 to 50 mg/kg | 98.5% | strong ability to inhibit | 93% | 100% |  |  |  |
| COC(NC(=O)CCCCCCNC(=N)N)C(=O)NCCCCNCCCN (centres unmarked) [(2), N-[4-(3-aminopropyl)aminobutyl]-2-(7-guanidinoheptaneamino)-2-methoxyethaneamide] | 99% | 49% | 5.5% |  |  |  |  | 12.5 to 25 mg/kg | 95.9% |  |  |  |  |  |  |
| N=C(N)NCCCCCCCCC(=O)NC(O)C(=O)NCCCCNCCCN (centres unmarked) [(3), N-[4-(3-aminopropyl)aminobutyl]-2-(9-guanidinononaneamido)-2-hydroxyethaneamide] | 55% | 32% | 11% | 6.6% |  |  |  | 12.5 to 25 mg/kg |  |  |  |  |  |  |  |
| N=C(N)NCCCCCCC(=O)NCC(=O)NCCCCNCCCN [(4), N-[4-(3-aminopropyl)aminobutyl]-2-(7-guanidinoheptaneamido)-ethaneamide] |  | 111% |  |  | highly effective in suppressing | 100% | 100% | 12.5 to 25 mg/kg | 89,4% | strong ability to inhibit | 99% | 100% | 99% | 46% |  |
| N=C(N)NCCCCCCC(=O)N[C@@H](CO)C(=O)NCCCCNCCCN [(5), N-[4-(3-aminopropyl)aminobutyl]-2-(7-guanidinoheptaneamido)-(S)-2-hydroxymethylethaneamide] | 81% | 117% | 58% |  | highly effective in suppressing | 88% | 100% | 12.5 to 25 mg/kg | 89,4% | strong ability to inhibit | 96% | 100% |  |  |  |
| N=C(N)Nc1ccc(CCCC(=O)NCC(=O)NCCCCNCCCN)cc1 [(6), N-[4-(3-aminopropyl)aminobutyl]-2-[4-(p-guanidinophenyl)butaneamido]ethaneamide] |  |  |  |  | highly effective in suppressing | 96% | 100% | 25 to 50 mg/kg | 92,9% | strong ability to inhibit | 99% | 100% |  | 102% | 33% |
| N=C(N)Nc1ccc(CCCC(=O)N[C@@H](CO)C(=O)NCCCCNCCCN)cc1 [(7), N-[4-(3-aminopropyl)aminobutyl]-2-[4-(p-guanidinophenyl)-butaneamido]-(S)-2-hydroxymethylethaneamide] |  |  |  |  |  |  |  | 25 to 50 mg/kg |  |  |  |  |  | 54% | 42% |
| N=C(N)NCc1ccc(CCC(=O)N[C@@H](CO)C(=O)NCCCCNCCCN)cc1 [(8), N-[4-(3-aminopropyl)aminobutyl]-2-[3-(p-guanidinomethylphenyl)propaneamido]-(S)-2-hydroxymethylethaneamide] |  |  | 50% | 20% |  |  |  | 25 to 50 mg/kg |  | strong ability to inhibit | 79% | 100% |  |  |  |
| N=C(N)Nc1ccc(CCCCC(=O)N[C@@H](CO)C(=O)NCCCCNCCCN)cc1 [(9), N-[4-(3-aminopropyl)aminobutyl]-2-[5-(p-guanidinophenyl)-pentaneamido]-(S)-2-hydroxymethylethaneamide] |  |  | 45% | 52% |  |  |  | 25 to 50 mg/kg |  |  |  |  |  |  |  |
| COC(NC(=O)C=CCCCCNC(=N)N)C(=O)NCCCCNCCCN (centres unmarked) [(10), N-[4-(3-aminopropyl)aminobutyl]-2-[7-guanidinohepta-2-enamido]-2-methoxyethaneamide] |  |  | 37% | 6.0% |  |  |  | 25 to 50 mg/kg |  |  |  |  |  |  |  |
| N=C(N)NCCCCC=CC(=O)NC(O)C(=O)NCCCCNCCCN (centres unmarked) [(11), N-[4-(3-aminopropyl)aminobutyl]-2-[7-guanidinohepta-2-enamido]-2-hydroxyethaneamide] |  |  | 40% | 8.5% | highly effective in suppressing | 98% | 100% | 25 to 50 mg/kg |  | strong ability to inhibit | 88% | 100% |  |  |  |
| N=C(N)NCCCC[C@H](O)CC(=O)NC(O)C(=O)NCCCCNCCCN (some centres unmarked) [Spergualin] |  |  | 106% | 28% |  |  |  |  |  |  |  |  |  |  |  |
